In data set [1] the target is T1, Peroxisome proliferator-activated receptor alpha (Homo sapiens, UniProt Q07869).
T1 sequence (Q07869 whole entry): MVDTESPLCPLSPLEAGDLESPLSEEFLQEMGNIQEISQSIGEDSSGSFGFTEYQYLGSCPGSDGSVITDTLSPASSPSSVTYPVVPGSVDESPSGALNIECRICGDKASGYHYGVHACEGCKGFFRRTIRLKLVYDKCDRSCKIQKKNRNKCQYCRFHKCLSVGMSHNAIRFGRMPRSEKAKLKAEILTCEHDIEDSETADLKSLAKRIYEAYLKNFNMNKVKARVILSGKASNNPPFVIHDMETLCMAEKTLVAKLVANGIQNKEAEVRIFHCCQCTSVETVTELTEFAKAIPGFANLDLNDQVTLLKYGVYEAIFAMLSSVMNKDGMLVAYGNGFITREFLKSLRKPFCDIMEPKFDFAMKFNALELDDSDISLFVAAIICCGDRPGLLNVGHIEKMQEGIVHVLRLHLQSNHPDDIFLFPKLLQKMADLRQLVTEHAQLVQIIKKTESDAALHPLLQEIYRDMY
As to the kind of experiment: Agonist activity at human PPARalpha ligand binding domain expressed in human 293T cells co-transfected with Gal4-DBD by luciferase transactivation assay. It counts as cell-based. Particulars: read-out: EC50.

The target in data set [2] is T2, Peroxisome proliferator-activated receptor gamma (Homo sapiens, UniProt P37231).
T2 sequence (P37231 whole entry): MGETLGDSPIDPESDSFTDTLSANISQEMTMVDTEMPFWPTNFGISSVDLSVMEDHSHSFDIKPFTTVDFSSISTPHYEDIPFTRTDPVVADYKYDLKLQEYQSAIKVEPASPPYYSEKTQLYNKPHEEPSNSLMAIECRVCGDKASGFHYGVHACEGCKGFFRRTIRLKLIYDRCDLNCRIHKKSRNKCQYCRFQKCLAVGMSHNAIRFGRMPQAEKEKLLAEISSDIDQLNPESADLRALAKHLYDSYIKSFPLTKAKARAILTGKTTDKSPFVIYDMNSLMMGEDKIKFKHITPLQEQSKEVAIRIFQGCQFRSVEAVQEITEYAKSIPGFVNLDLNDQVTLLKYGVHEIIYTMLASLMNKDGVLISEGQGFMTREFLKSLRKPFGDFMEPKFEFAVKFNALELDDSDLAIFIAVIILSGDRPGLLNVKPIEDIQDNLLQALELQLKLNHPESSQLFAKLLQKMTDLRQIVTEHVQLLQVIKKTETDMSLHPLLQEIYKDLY
The class given is cell-based, 293T. To be noted: read-out: EC50.

Data set [3] has as its target T3, Peroxisome proliferator-activated receptor alpha (Homo sapiens) (UniProt Q07869).
T3 sequence (whole entry): T1 sequence (Q07869 whole entry)
As to the kind of experiment: Agonist activity at human PPARalpha ligand binding domain expressed in human 293T cells co-transfected with Gal4-DBD by luciferase transactivation assay relative to KRP297. The class given is cell-based.

Data set [4] concerns Mus musculus. As to the kind of experiment: Upregulation of UCP3 expression in C57BL/6 mouse at 10 mg/kg, po qd relative to control. It counts as functional.
The test system of data set [5] is Mus musculus. As to the kind of experiment: Upregulation of PDK4 expression in C57BL/6 mouse at 10 mg/kg, po qd relative to control. It counts as functional.
Data set [6] deals with T4, Peroxisome proliferator-activated receptor delta (Homo sapiens, UniProt Q03181).
T4 sequence (Q03181 whole entry): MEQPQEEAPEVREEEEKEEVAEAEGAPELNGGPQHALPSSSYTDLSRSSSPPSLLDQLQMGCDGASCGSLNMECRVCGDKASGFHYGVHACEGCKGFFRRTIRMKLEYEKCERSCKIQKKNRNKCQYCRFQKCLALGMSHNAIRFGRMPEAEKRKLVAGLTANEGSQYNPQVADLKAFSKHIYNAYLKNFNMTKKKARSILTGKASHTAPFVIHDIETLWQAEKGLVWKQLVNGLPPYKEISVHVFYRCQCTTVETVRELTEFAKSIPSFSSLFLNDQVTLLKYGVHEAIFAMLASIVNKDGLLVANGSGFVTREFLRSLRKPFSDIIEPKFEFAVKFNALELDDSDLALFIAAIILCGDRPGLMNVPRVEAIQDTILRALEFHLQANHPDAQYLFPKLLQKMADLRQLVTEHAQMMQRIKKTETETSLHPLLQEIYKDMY

The target in data set [7] is T4, Peroxisome proliferator-activated receptor delta. The source holds these as a separate data set.
The nature of data set [8]: Cmax in Balb/c mouse at 10 mg/kg, po qd. To be noted: in vivo.
Data set [9] in a line: Half life in Balb/c mouse at 10 mg/kg, po qd. To be noted: in vivo.
Data set [10] concerns the target Peroxisome proliferator-activated receptor delta (Homo sapiens) (UniProt Q03181). As to the kind of experiment: Agonist activity at human PPARdelta by FRET assay.
Data set [11] in a line: AUC ((0 to 24 hrs)) in Balb/c mouse at 10 mg/kg, po qd. To be noted: plasma.
Data set [12] in a line: Oral bioavailability in Balb/c mouse at 10 mg/kg daily. To be noted: in vivo.

Molecules are shown by their SMILES.

Broadly, the EC50 is the concentration that produces a half-maximal response. What is called Cmax is the maximum level reached in the sampled fluid or tissue. For orientation: half-life means how long it takes for the measured level to halve. Read a high half-life as slow decline. Usually AUC stands for the area under the concentration-time curve, a measure of exposure. A lower AUC goes with less exposure. `Cc1cc(OCc2nc(-c3ccc(OC4CCCC4)cc3)c(-c3ccc(OC(F)(F)F)cc3)o2)ccc1OCC(=O)O`: the 50% effective concentration (EC50) in data set [1] is 910 nM; in [2] it was > 10000 nM; in data set [6], 4 nM; in [7], 12 nM; in [10], 9 nM. This compound also had an Efficacy in data set [3] of 56%. Moreover, the “fold change (FC)” value in the data set on Mus musculus [4] was 2.5; with Mus musculus [5], 2.1. This compound yielded a Cmax in data set [8] of 2.4 µM. This compound also showed a half-life in [9] of 3.1 h. For the same compound, in data set [11], the area under the curve (AUC) at 24 h is 23.3 µM·h. The bioavailability in data set [12] came to 35%.

For the compound `Cc1cc(OCc2nc(-c3ccc(OC(C)C)cc3)c(-c3ccc(OC(F)(F)F)cc3)s2)ccc1OCC(=O)O`, the concentration for a half-maximal effect (EC50) was > 10000 nM in [1]; > 10000 nM in data set [2]; 7 nM in data set [6]; 10 nM in [7]; 26 nM in data set [10]. The “fold change (FC)” value was 2.4 in the data set with Mus musculus [4] and 1.9 in the data set on Mus musculus [5]. In data set [8], this compound gave a Cmax of 3.7 µM. Further, the half-life in data set [9] is 9 h. The same compound showed an exposure (AUC) at 24 h in [11] of 54.1 µM·h. Besides, the bioavailability in data set [12] came out at 88%.

Regarding `Cc1cc(OCc2nc(-c3ccc(OC(C)C)nc3)c(-c3ccc(OC(F)(F)F)cc3)o2)ccc1OCC(=O)O`, the EC50 in data set [1] was determined as 790 nM; in data set [2], 70000 nM; in [6] it was 2490 nM; in data set [7] it was 14 nM; in [10], 7 nM. In data set [3], this compound yielded an Efficacy of 20%. The “fold change (FC)” value is given as 2.5 in the data set on Mus musculus [4] and 1.5 in the data set on Mus musculus [5]. In data set [8], this compound returned a Cmax of 9.1 µM. Besides, the half-life in data set [9] is 5.3 h. For the same compound, the exposure (AUC) at 24 h in data set [11] was 95.8 µM·h. Besides, the bioavailability in data set [12] is 144%.

As to `COc1ccc(-c2nc(COc3ccc(OCC(=O)O)c(C)c3)sc2-c2ccc(OC(F)(F)F)cc2)cn1`, the half-maximal effective concentration (EC50) in data set [1] was > 10000 nM; in [2] it was > 10000 nM; in [6], 17 nM; in data set [7], 12 nM; in [10], 90 nM. In addition, the figures for the “fold change (FC)” value in the data set with Mus musculus [4] and in the data set on Mus musculus [5] were 2.5 and 1.9, respectively. The compound further showed a peak concentration (Cmax) in data set [8] of 17.3 µM. Also, the half-life in [9] was 4.6 h. For the same compound, the AUC at 24 h in [11] turned out to be 196 µM·h. Besides, the bioavailability in data set [12] is 140%.

In the case of `Cc1cc(OCc2nc(-c3ccc(OC(C)C)cc3)c(-c3ccc(OC(F)(F)F)cc3)o2)ccc1OCC(=O)O`, the half-maximal effective concentration (EC50) in data set [1] was 2600 nM; in data set [2] it was > 10000 nM; in [6], 3 nM; in data set [7], 13 nM; in data set [10], 9 nM. The compound also returned an Efficacy in data set [3] of 43%. For the same compound, the “fold change (FC)” value in the data set with Mus musculus [4] amounted to 2.2; in the data set with Mus musculus [5], 2.3. For the same compound, the highest concentration (Cmax) in [8] was 7.8 µM. In [9], this compound showed a half-life of 5.1 h. Further, the exposure (AUC) at 24 h in [11] came out at 104 µM·h. Further, the bioavailability in data set [12] turned out to be 129%.

For the origin of these results see ChEMBL document CHEMBL1153748 (J Med Chem, 2010).
